Drawing on ChEMBL document CHEMBL5543108, “Structure-based design and synthesis of BML284 derivatives: A novel class of colchicine-site noncovalent tubulin degradation agents” (Eur J Med Chem, 2024), this text covers IC50 for 38 molecules.

One test deals with HeLa. Description: Antiproliferative activity against human HeLa cells assessed as reduction in cell viability measured after 72 hrs. It is filed as functional, cell-based.
The subject of another test is MOLM-13. The test can be described thus: Antiproliferative activity against human MOLM-13 cells assessed as reduction in cell viability measured after 72 hrs. It is filed as functional, cell-based. The settings on record: MOLM-13, 72 h.
A further test concerns MCF7. The test can be described thus: cells. The following applies: Homo sapiens, MCF7, 72 h.
In a further test the test system is K562. Description: Antiproliferative activity against human K562 cells assessed as reduction in cell viability measured after 72 hrs. The format is functional, cell-based. The following applies: K562, 72 h.
Another test deals with HCT-116. The test can be described thus: cells. The settings on record: Homo sapiens, HCT-116, 72 h.

Where only a bound is given, the exact number is not on record here.

Description for HCT-116: Antiproliferative activity against human HCT-116 cells assessed as reduction in cell viability measured after 72 hrs
Description for MCF7: Antiproliferative activity against human MCF7 cells assessed as reduction in cell viability measured after 72 hrs

In the case of `CCCN(Cc1ccc2c(c1)OCO2)c1cc(-c2cccc(OC)c2)nc(N)n1`, the 50% inhibitory concentration (IC50) came out at 80 nM in the test with HeLa; 80 nM with MOLM-13; 110 nM with MCF7; 80 nM in the test on K562; 110 nM in the test with HCT-116.
`CN(C)c1cccc(-c2cc(NCc3ccc4c(c3)OCO4)nc(N)n2)c1`: the half-inhibitory concentration (IC50) with HeLa came to 280 nM; in the test with MOLM-13, 360 nM; in the test with MCF7, 530 nM; with K562, 300 nM; in the test on HCT-116, 550 nM.
The corresponding values for `COc1cc(OC)cc(-c2cc(NCc3ccc4c(c3)OCO4)nc(N)n2)c1` are 180 nM, 60 nM, 350 nM, 60 nM and 330 nM.
The matching figures for `COc1cccc(-c2cc(N(C)Cc3ccc4c(c3)OCO4)nc(N)n2)c1`: 20 nM, 30 nM, 120 nM, 40 nM and 35 nM.
On to `COc1cc(-c2cc(NCc3ccc4c(c3)OCO4)nc(N)n2)cc(OC)c1OC`, for which the IC50 in the test on HeLa, in the test on MOLM-13, with MCF7, in the test with K562 and in the test with HCT-116 was over 2000 nM throughout.
Consider `CC(C)(C)c1ccc(-c2cc(NCc3ccc4c(c3)OCO4)nc(N)n2)cc1`, for which the IC50 with HeLa, in the test on MOLM-13, with MCF7, in the test on K562 and in the test with HCT-116 was over 2000 nM in each case.
For the molecule `CC1(C)c2ccccc2-c2ccc(-c3cc(NCc4ccc5c(c4)OCO5)nc(N)n3)cc21`, the IC50 in the test with HeLa, in the test on MOLM-13, in the test with MCF7, in the test on K562 and in the test with HCT-116 was over 2000 nM each time.
For `Nc1nc(NCc2ccc3c(c2)OCO3)cc(-c2ccc(-c3ccccc3)cc2)n1`, the IC50 with HeLa, in the test with MOLM-13, in the test with MCF7, with K562 and in the test with HCT-116 was over 2000 nM in each case.
On to `CCOc1ccc(-c2cc(NCc3ccc4c(c3)OCO4)nc(N)n2)cc1`, for which the IC50 with HeLa, with MOLM-13, with MCF7, in the test with K562 and in the test on HCT-116 was over 2000 nM throughout.
For the molecule `COc1ccc(CNc2cc(-c3cccc(OC)c3)nc(N)n2)cc1`, the IC50 in the test on HeLa was 120 nM; with MOLM-13 it was 120 nM; in the test with MCF7, 620 nM; in the test on K562, 130 nM; with HCT-116, 520 nM.
In the case of `COc1cccc(-c2cc(NCc3ccc(F)cc3F)nc(N)n2)c1`, the IC50 with HeLa stood at 360 nM; with MOLM-13 it was 130 nM; in the test with MCF7 it was 540 nM; with K562, 120 nM; in the test with HCT-116, 180 nM.
As to `Nc1nc(NCc2ccc3c(c2)OCO3)cc(-c2cccc3ccccc23)n1`, the IC50 is 500 nM with HeLa; 220 nM in the test on MOLM-13; 960 nM with MCF7; 250 nM with K562; 770 nM in the test on HCT-116.
Turning to `COc1cccc(-c2cc(NCc3cc(OC)c(OC)c(OC)c3)nc(N)n2)c1`, the concentration for half-maximal inhibition (IC50) in the test on HeLa came to 330 nM; in the test with MOLM-13 it was 110 nM; with MCF7, 280 nM; in the test with K562, 280 nM; in the test on HCT-116, 160 nM.
`Nc1nc(NCc2ccc3c(c2)OCO3)cc(-c2ccc(F)cc2)n1`: the IC50 in the test on HeLa, with MOLM-13, in the test on MCF7, in the test with K562 and with HCT-116 was over 2000 nM throughout.
Turning to `Cn1cc2c(-c3cc(NCc4ccc5c(c4)OCO5)nc(N)n3)cccc2n1`, the IC50 in the test with HeLa, in the test on MOLM-13, with MCF7, in the test with K562 and with HCT-116 was over 2000 nM in each case.
On to `Nc1nc(NCc2ccc3c(c2)OCO3)cc(-c2ccc3c(c2)OCCO3)n1`, for which the IC50 in the test with HeLa came out at 520 nM; with MOLM-13, 240 nM; with MCF7, 650 nM; in the test with K562, 170 nM; with HCT-116, 710 nM.
On to `Nc1nc(NCc2ccc3c(c2)OCO3)cc(-c2ccc3c(c2)CCN3)n1`, for which the IC50 with HeLa was found to be 120 nM; with MOLM-13, 90 nM; in the test with MCF7, 640 nM; in the test on K562, 20 nM; with HCT-116, 300 nM.
For the molecule `CC(C)c1cccc(-c2cc(NCc3ccc4c(c3)OCO4)nc(N)n2)c1`, the IC50 in the test with HeLa, in the test on MOLM-13, with MCF7, in the test on K562 and in the test with HCT-116 was over 2000 nM in each case.
In the case of `CC(=O)c1cccc(-c2cc(NCc3ccc4c(c3)OCO4)nc(N)n2)c1`, the IC50 in the test on HeLa, in the test on MOLM-13, in the test on MCF7, in the test with K562 and in the test on HCT-116 was over 2000 nM each time.
Turning to `COc1cccc(-c2cc(NCc3ccc4c(c3)OCO4)nc(N)n2)c1`, the IC50 stood at 90 nM with HeLa; 190 nM in the test with MOLM-13; 690 nM in the test on MCF7; 100 nM in the test with K562; 520 nM with HCT-116.
The matching figures for `Nc1nc(NCc2ccc3c(c2)OCO3)cc(-c2ccc3ccccc3c2)n1`: over 2000 nM, over 2000 nM, over 2000 nM, 1820 nM and 1670 nM.
Take `C=CCN(Cc1ccc2c(c1)OCO2)c1cc(-c2cccc(OC)c2)nc(N)n1`: the IC50 in the test with HeLa worked out at 110 nM; with MOLM-13 it was 60 nM; with MCF7 it was 60 nM; in the test on K562, 60 nM; in the test with HCT-116, 97 nM.
`COc1cccc(-c2cc(NCc3ccc(OC)c(OC)c3)nc(N)n2)c1`: the IC50 was 60 nM with HeLa; 30 nM in the test on MOLM-13; 40 nM in the test on MCF7; 70 nM with K562; 30 nM in the test with HCT-116.
On to `COc1cccc(-c2cc(NCc3ccc(OC(F)(F)F)cc3)nc(N)n2)c1`, for which the IC50 in the test with HeLa turned out to be 430 nM; with MOLM-13 it was 280 nM; with MCF7 it was 590 nM; in the test on K562, 260 nM; with HCT-116 it was 260 nM.
`Nc1nc(NCc2ccc3c(c2)OCO3)cc(-c2ccoc2)n1`: the IC50 in the test on HeLa is 910 nM; in the test on MOLM-13, 560 nM; with MCF7, over 2000 nM; in the test on K562, 280 nM; in the test on HCT-116 it was 1010 nM.
The matching figures for `COc1ccc(-c2cc(NCc3ccc4c(c3)OCO4)nc(N)n2)cn1`: 200 nM, 190 nM, 1250 nM, 120 nM and 820 nM.
For the molecule `COc1cccc(-c2cc(N3CCc4cc(OC)c(OC)cc4C3)nc(N)n2)c1`, the IC50 in the test with HeLa is 230 nM; with MOLM-13, 170 nM; in the test on MCF7, 220 nM; with K562, 330 nM; in the test with HCT-116, 210 nM.
`CC(C)c1ccc(-c2cc(NCc3ccc4c(c3)OCO4)nc(N)n2)cc1`: the IC50 in the test on HeLa, in the test with MOLM-13, in the test on MCF7, in the test on K562 and in the test on HCT-116 was over 2000 nM throughout.
`COc1ccc(-c2cc(NCc3ccc4c(c3)OCO4)nc(N)n2)cc1OC`: the IC50 with HeLa, with MOLM-13, in the test with MCF7, in the test with K562 and in the test with HCT-116 was over 2000 nM throughout.
For the molecule `CC(=O)Nc1cccc(-c2cc(NCc3ccc4c(c3)OCO4)nc(N)n2)c1`, the IC50 with HeLa, with MOLM-13, with MCF7, with K562 and with HCT-116 was over 2000 nM in each case.
With `COc1cccc(-c2cc(NCc3ccc4ccccc4c3)nc(N)n2)c1`, the IC50 in the test with HeLa was determined as 290 nM; in the test with MOLM-13, 130 nM; in the test on MCF7 it was 290 nM; with K562 it was 320 nM; in the test on HCT-116, 130 nM.
Turning to `Nc1nc(NCc2ccc3c(c2)OCO3)cc(-c2cccc(OCc3ccccc3)c2)n1`, the IC50 is over 2000 nM with HeLa; 1010 nM with MOLM-13; over 2000 nM with MCF7; 740 nM with K562; 1050 nM with HCT-116.
With `Nc1nc(NCc2ccc3c(c2)OCO3)cc(-c2ccncc2)n1`, the IC50 in the test on HeLa, with MOLM-13, in the test on MCF7, with K562 and in the test with HCT-116 was over 2000 nM in each case.
On to `Nc1nc(NCc2ccc3c(c2)OCO3)cc(-c2cccc(-c3ccccc3)c2)n1`, for which the IC50 in the test with HeLa, in the test with MOLM-13, in the test with MCF7, in the test on K562 and in the test with HCT-116 was over 2000 nM in each case.
Regarding `Cc1ccc(-c2cc(NCc3ccc4c(c3)OCO4)nc(N)n2)cc1`, the IC50 in the test on HeLa came out at 170 nM; with MOLM-13 it was 200 nM; with MCF7, 450 nM; in the test with K562, 150 nM; in the test on HCT-116, 420 nM.
Consider `Nc1nc(NCc2ccc3c(c2)OCO3)cc(-c2ccc3c(c2)OCO3)n1`, for which the IC50 in the test with HeLa came out at 180 nM; with MOLM-13, 110 nM; in the test on MCF7, 1210 nM; in the test on K562 it was 70 nM; in the test with HCT-116, 390 nM.
On to `Nc1nc(NCc2ccc3c(c2)OCO3)cc(-c2ccc(Oc3ccccc3)cc2)n1`, for which the IC50 with HeLa, with MOLM-13, with MCF7, with K562 and in the test on HCT-116 was over 2000 nM throughout.
For `N#Cc1cccc(-c2cc(NCc3ccc4c(c3)OCO4)nc(N)n2)c1`, the IC50 with HeLa, with MOLM-13, with MCF7, in the test on K562 and in the test with HCT-116 was over 2000 nM in each case.
